Measured values reported in PMC2652713, “Molecular Blocking of CD23 Supports Its Role in the Pathogenesis of Arthritis” (PLoS ONE, 2009).

Key:
[1] = tested on: human CD23+ monocyte-derived macrophages; test: Inflammatory gene transcription array in CD23-activated macrophages of healthy donors; assay type: cell-based
Protocol: Figure 3 Inhibition of inflammatory gene transcription by p30A in CD23-stimulated macrophages. Human CD23^+ monocyte-derived macrophages were incubated with cross-linking CD23-McAb (20 µg/ml) alone or following 1 h pre-incubation with 10 µg/ml of p30A. Controls, activated cells with/without p30A pre-incubation are figured. IL-1β, TNF-α and actin (ACT) mRNA location are indicated by arrows. Shown is one representative experiment out of three. TEXT PRINTED IN THE PICTURE: p30A: Expressed Genes: 28 / 114 (Activated + p30A)
(§1) Monocytes or macrophages were activated through CD23 pathway: while monocytes/macrophages from RA patients express CD23, monocytes from healthy donors must be pre-activated to express surface CD23 as described. This pre-activation was obtained by incubation of healthy monocytes with recombinant human IL-4 (20 ng/ml) during 48 h at 37°C; After washing, all cell populations were tested by flow cytometry for their surface CD23 expression (>80% CD23^+) and then incubated in the presence of cross-linking CD23-MAb (clones 135 or DM2, IgG1k, 20 µg/ml) during 48–72 h, or IgE and anti-IgE as described, [17]. When indicated, peptides were added to the cells 2 h prior to their activation. Cells supernatants were then analyzed for their nitric oxide content (see below) and for the presence of cytokines: levels of TNF-α and IL-6 were determined in duplicates for each sample by a specific ELISA (R&D, Paris, France) while levels of IL-1β, IL-8 and IL-10 was determined using FlowCytomix Human Th1/Th2 Kit as recommended (Bender Medsystems, Vienna, Austria).
Following cultures, total RNA was extracted using RNeasy kit (Qiagen, Hilden, Germany). Synthesis, purification and hybridization of biotin-labeled cRNA (6 µg) to custom array membranes were performed according to manufacturer's recommendations (Oligo GEArray® Human Inflammatory Cytokines and Receptors Microarray, ref OHS-011, Superarray Bioscience, Frederick, MD). After local background subtraction, average signal intensity from duplicate spots was compared to values obtained for housekeeping genes using AlphaImager HP automatic image capture software (Alpha-Innotec, San Leandro, CA). For each gene, modulation was defined as the relative expression value for stimulated vs. control sample.

[2] = tested on: healthy human PBL-derived macrophages; test: Inflammatory mediator release from healthy human PBL-derived macrophages; assay type: cell-based
Protocol: Figure 4 Inhibition of inflammatory mediator generation from healthy human PBL-derived macrophages by p30A. Decreased levels of TNF-α (A), IL-6 (B), IL-1β, IL-8 and IL-10 (C) were detected in CD23-activated cells after incubation with p30A. […] Values are mean±s.d. of cells from 5 (IL-6, TNF-α) or 2 (IL-1β, IL-8, IL-10) different donors.
as §1

[3] = FlowCytomix, mean±s.d., 2 donors

Substance: FHENWPS [p30A]
- inhibition of expression of inflammatory mRNAs ([1]; CD23-activated macrophages of healthy donors): inhibits the expression of most of the above mRNAs
- expressed mRNAs: Chemokine Receptors ([1]; activated cells + p30A): CCR1, CCR5, CCR7, CXCR4
- expressed mRNAs: Chemokines Other subfamily members ([1]; activated cells + p30A): BCL6, BLR1, C3
- expressed mRNAs: Chemokines Subfamily A (Cys-Cys) ([1]; activated cells + p30A): CCL15, CCL17, CCL18, CCL19, CCL3, CCL4, CCL5
- expressed mRNAs: Interleukins and their Receptors ([1]; activated cells + p30A): IL10RA, IL10RB, IL11RA, IL17R, IL1R1, IL1R2, IL2RA, IL2RG, IL6R
- expressed mRNAs: Other related genes ([1]; activated cells + p30A): LTB4R, MIF
- expressed mRNAs: TNF Ligands and Receptors ([1]; activated cells + p30A): LTA (LT- α), LTB (LT-β), TNFRSF1B (TNFR2)
- number of expressed genes detected/114 ([1]; activated cells + p30A (10 µg/ml, 1 h pre-incubation; CD23-McAb 20 µg/ml), comparators: non activated cells 14, activated cells 53): 28
- IL-6 level ([2]; ELISA, mean±s.d., 5 donors): Decreased
- TNF-α level ([2]; ELISA, mean±s.d., 5 donors): Decreased
- IL-1β level [2, 3]: Decreased
- IL-8 level [2, 3]: Decreased
- IL-10 level [2, 3]: Decreased
- inhibition of CD23-mediated inflammatory mediators at protein level ([2]; TNF-α, IL-6, IL-1β, IL-8 and IL-10 in supernatants): significantly inhibited all CD23-mediated activation of inflammatory mediators at protein levels
